Active and inactive are the calls of the source.
Assays:
[1] = test system: HEK293; assay: cells; settings: Homo sapiens
[2] = test system: HEK293; assay: cells; settings: Homo sapiens; remark: listed apart in the source
[3] = biological target: Beta-2 adrenergic receptor (Homo sapiens, UniProt P07550); assay: beta2AR agonists driving receptor internalization, dose response, cell-based, FAP fluorogen, flow cytometry, cherry pick 1 (AID 588763); format: functional
[4] = biological target: Trypsin (Sus scrofa, UniProt P00761); assay: porcine trypsin inhibitors, dose response, selectivity assay for Rce1 protease inhibitor project, biochemical, quenched peptide fluorescence, cherry-pick (AID 488789)
[5] = biological target: SUMO-activating enzyme (Homo sapiens, UniProt Q9UBT2); assay: SUMOylation inhibitor hit validation, confirmation, SUMOylation inhibitor project, biochemical, AlphaScreen (AID 2018); format: functional
[6] = biological target: T1, Coagulation factor XII (Homo sapiens, UniProt P00748); format: functional;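 further: activated factor XIIa alpha cleaving a fluorogenic AMC peptide substrate; inhibitor potency from loss of enzyme activity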
T1 sequence (P00748 whole entry): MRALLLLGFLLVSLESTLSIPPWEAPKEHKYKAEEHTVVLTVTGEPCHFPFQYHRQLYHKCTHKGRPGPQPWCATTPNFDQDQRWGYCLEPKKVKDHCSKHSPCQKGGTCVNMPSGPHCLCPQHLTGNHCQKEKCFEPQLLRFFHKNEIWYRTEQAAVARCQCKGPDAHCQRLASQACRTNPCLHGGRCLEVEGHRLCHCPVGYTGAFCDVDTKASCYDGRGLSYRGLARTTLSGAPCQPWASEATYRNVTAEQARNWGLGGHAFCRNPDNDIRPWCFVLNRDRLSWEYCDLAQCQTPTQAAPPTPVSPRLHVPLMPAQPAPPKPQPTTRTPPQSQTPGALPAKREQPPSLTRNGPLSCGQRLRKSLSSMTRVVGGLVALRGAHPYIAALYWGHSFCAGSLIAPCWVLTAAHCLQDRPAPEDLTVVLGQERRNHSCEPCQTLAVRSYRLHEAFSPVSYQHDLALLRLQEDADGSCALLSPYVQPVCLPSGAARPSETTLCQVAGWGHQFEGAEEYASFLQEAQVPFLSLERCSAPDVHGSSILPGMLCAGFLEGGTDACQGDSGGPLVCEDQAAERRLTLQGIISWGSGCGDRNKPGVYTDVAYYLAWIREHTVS

[7] = test system: H9c2; assay: cells; format: functional, cell-based; settings: Rattus norvegicus, H9c2, Myocardium;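 further: confirmatory concentration-response retest of ultra-high-throughput screening hits for modulation of myocardial damage; cell death induced by hydrogen peroxide oxidative stress; compound pretreatment for 60 min then peroxide exposure for 2 h; potency is for protecting the cells against peroxide damage rather than for killing them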
[8] = HEp-2 cell cytotoxicity, dose response, cytotoxicity control for RSV inhibitor project, HTS (AID 2410); format: functional; settings: human respiratory syncytial virus
[9] = biological target: T2, Ubiquitin-conjugating enzyme E2 N (Homo sapiens, UniProt P61088); format: functional
T2 sequence (P61088 whole entry): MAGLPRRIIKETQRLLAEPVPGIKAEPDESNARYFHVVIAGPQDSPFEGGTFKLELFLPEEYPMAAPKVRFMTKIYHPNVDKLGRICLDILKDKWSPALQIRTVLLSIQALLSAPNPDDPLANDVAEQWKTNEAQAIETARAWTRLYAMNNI

[10] = biological target: T3, Bcl-2-related protein A1 (Mus musculus, UniProt Q07440); format: functional;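 further: confirmatory dose–response counterscreen on Bfl-1, used to check hits from a UBC13 polyubiquitin inhibitor campaign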
T3 sequence (Q07440 whole entry): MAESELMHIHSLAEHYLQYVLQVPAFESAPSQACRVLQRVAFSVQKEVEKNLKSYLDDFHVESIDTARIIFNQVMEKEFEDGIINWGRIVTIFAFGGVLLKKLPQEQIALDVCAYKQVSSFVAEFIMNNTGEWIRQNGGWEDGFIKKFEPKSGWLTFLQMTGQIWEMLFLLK

[11] = biological target: T2, Ubiquitin-conjugating enzyme E2 N; format: functional; remark: listed apart in the source
[12] = biological target: Glucose-6-phosphate 1-dehydrogenase (Homo sapiens, UniProt P11413); assay: human G6PD enzyme inhibitors, dose response, selectivity assay for P. falciparum G6PD inhibitor project, biochemical, fluorescence (AID 504792); format: functional
[13] = Luminescence Cell-Based Dose Retest to Confirm Inhibitors of Cancer Stem Cells. [Related pubchem assays (depositor defined):AID2717, AID2721]; format: functional; settings: Homo sapiens
[14] = growth suppression of PTEN-null colon cells, dose response, cell-based, HCT116 PTEN knockout (AID 1047); format: functional;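 further: HCT116 colon tumor cells with PTEN knocked out; cells exposed to compound for 60 hours before readout; potency for loss of cell viability measured by luminescence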
[15] = growth suppression of beta-catenin-knockout colon cells, dose response, cell-based, HCT116, human colon tumor (AID 1045); format: functional;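 further: HCT116 colon tumor cells with beta catenin knocked out; cells exposed to compound for 60 hours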
[16] = LGR2 antagonists, dose response, cell-based, HEK293, CRE-luciferase reporter, cherry pick, set 2 (AID 743343); format: functional;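 further: transfected cells were stimulated with diluted bursicon conditioned medium after compound addition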
[17] = biological target: T4, Replicative DNA helicase DnaB (Mycobacterium tuberculosis, UniProt P9WMR3); assay: DnaB intein splicing inhibitors, dose response, biochemical, cell-free fluorescence (AID 449749); format: functional
T4 sequence (P9WMR3 whole entry): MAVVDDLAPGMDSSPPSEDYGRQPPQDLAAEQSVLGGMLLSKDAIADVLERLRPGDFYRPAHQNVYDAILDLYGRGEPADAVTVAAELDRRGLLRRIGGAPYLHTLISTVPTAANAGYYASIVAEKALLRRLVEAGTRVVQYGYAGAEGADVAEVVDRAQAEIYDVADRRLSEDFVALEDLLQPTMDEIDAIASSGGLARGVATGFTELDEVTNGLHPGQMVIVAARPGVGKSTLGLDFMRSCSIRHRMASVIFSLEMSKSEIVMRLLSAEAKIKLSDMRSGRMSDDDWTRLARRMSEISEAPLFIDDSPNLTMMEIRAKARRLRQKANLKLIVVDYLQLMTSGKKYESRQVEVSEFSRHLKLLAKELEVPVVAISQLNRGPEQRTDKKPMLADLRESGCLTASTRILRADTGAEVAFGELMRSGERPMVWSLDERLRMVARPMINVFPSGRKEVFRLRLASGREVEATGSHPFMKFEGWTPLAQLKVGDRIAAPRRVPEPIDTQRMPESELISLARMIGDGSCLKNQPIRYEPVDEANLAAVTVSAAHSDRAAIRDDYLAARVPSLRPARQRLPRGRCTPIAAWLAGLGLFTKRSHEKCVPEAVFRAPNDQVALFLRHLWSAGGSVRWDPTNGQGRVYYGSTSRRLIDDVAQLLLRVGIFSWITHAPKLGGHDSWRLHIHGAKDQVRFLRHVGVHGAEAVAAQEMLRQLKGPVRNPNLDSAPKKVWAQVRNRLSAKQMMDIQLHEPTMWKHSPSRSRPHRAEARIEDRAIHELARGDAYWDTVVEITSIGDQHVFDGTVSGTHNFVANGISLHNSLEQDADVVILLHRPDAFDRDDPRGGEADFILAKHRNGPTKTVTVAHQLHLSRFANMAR

[18] = HEK293 cell cytotoxicity, dose response, cytotoxicity control, plate reader, cherry-picked samples (AID 743446); format: functional, cell-based
[19] = biological target: T5, Protein RecA (Mycobacterium tuberculosis, UniProt P9WHJ3); assay: Fluorescence Cell-Free Homogeneous Dose Retest to Identify Inhibitors of RecA-Intein Splicing Activity. [Related pubchem assays (depositor defined):AID2097, AID2223, AID489010, AID492950]; format: functional
T5 sequence (P9WHJ3 whole entry): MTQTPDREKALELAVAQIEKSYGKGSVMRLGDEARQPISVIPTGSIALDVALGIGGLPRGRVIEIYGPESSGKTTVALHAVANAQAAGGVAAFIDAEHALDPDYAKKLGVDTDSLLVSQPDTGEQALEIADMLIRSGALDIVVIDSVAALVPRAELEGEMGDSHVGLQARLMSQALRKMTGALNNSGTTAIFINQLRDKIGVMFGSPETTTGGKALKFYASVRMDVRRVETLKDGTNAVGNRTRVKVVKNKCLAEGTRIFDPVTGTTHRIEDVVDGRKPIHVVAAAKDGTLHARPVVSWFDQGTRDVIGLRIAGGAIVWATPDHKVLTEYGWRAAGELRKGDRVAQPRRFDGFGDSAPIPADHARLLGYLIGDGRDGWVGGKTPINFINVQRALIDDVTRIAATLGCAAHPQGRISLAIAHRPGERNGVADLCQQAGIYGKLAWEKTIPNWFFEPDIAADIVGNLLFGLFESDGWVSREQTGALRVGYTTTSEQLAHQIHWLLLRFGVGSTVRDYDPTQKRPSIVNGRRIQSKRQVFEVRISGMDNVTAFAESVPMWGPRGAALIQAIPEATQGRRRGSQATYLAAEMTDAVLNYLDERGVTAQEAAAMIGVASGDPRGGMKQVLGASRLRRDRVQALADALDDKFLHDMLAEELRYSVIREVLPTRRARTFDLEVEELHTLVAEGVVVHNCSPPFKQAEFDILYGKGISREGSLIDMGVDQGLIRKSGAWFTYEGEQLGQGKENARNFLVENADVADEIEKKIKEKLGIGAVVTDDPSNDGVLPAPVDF

[20] = inhibitors of intracellular T. cruzi replication, confirmation, NIH3T3 host cells, beta-gal luminescence (AID 2044); format: functional, cell-based;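 further: intracellular parasites grown in NIH/3T3 mouse fibroblasts as host cells; luminescent beta-galactosidase reporter signal from transgenic T. cruzi replicating inside host cells; inhibitors lower the luminescence signal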
[21] = MC4R antagonists, dose response, counter-screen for LGR2 antagonist project, cell-based, plate reader, cherry pick (AID 743444); format: functional;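 further: transfected HEK 293 cells stimulated with alpha-MSH peptide; potency of inhibitors of the alpha-MSH evoked signal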
[22] = HepG2 cell cytotoxicity, dose response, cytotoxicity control, plate reader, cherry-pick, antagonist series (AID 743416); format: functional, cell-based
[23] = cytotoxicity toward NIH3T3 fibroblasts, dose response, counter-screen, cell-based, ATP luminescence, mouse fibroblasts (AID 2010); format: functional;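 further: cells exposed to compound for about 90 hours before reading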
[24] = A549 cell cytotoxicity, dose response, cytotoxicity control, plate reader, cherry-pick, antagonist series (AID 743412); format: functional, cell-based
[25] = Fluorescence-based cell-based high throughput dose response assay for inhibitors of the interaction of nucleotide-binding oligomerization domain containing 2 (NOD2) and the receptor-interacting serine-threonine kinase 2 (RIPK2).; format: functional; settings: Homo sapiens
[26] = biological target: T6, Heat shock factor protein 1 (Mus musculus, UniProt P38532); assay: HSF1 potentiators in luciferase reporter cells, confirmation, cell-based, NIH3T3, luminescence, dose retest (AID 435004); format: functional;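 further: stress induced by proteasome inhibitor MG132 added 30 min after compound; luciferase reporter driven by HSF1 response element in NIH3T3 cells; actives raise luminescence as potentiators of the MG132 stress response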
T6 sequence (P38532 whole entry): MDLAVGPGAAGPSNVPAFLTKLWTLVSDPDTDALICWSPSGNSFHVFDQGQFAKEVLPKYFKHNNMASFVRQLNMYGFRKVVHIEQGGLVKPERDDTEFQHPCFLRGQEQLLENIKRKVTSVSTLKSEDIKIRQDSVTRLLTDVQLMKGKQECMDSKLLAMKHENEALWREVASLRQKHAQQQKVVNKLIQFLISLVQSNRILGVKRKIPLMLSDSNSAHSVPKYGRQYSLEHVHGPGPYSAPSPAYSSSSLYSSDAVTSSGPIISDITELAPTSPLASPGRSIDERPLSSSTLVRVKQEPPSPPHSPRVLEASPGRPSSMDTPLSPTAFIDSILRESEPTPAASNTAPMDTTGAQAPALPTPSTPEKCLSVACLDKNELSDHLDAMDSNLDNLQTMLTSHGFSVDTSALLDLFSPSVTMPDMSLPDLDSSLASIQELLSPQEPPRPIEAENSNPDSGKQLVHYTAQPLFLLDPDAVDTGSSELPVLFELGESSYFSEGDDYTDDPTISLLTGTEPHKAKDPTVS

SUMO-activating enzyme, sequence (Q9UBE0 whole entry): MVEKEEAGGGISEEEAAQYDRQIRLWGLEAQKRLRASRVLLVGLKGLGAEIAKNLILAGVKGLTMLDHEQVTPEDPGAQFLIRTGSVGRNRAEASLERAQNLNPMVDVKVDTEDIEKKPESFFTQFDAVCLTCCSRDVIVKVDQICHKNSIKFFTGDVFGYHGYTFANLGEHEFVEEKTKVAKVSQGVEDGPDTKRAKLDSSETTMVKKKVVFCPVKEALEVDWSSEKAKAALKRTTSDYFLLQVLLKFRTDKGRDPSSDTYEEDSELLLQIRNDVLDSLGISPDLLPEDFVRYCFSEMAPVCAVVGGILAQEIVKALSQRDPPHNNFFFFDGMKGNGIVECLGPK
SUMO-activating enzyme, sequence (Q9UBT2 whole entry): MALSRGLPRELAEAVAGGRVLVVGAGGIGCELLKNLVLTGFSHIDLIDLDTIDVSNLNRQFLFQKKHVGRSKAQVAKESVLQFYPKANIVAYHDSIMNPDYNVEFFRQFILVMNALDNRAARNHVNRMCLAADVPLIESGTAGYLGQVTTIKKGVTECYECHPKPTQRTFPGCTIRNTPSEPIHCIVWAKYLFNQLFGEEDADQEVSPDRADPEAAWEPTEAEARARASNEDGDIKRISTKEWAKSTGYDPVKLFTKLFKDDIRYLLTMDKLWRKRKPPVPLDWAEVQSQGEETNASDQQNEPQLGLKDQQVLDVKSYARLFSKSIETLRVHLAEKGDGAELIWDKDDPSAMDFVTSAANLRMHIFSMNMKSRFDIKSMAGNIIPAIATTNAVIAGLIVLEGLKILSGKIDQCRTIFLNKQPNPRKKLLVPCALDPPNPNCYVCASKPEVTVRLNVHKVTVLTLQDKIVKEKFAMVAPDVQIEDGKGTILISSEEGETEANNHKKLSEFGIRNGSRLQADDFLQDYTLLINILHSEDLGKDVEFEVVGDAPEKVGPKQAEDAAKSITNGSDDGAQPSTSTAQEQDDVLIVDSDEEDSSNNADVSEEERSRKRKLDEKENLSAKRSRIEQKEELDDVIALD
Beta-2 adrenergic receptor, sequence (P07550 whole entry): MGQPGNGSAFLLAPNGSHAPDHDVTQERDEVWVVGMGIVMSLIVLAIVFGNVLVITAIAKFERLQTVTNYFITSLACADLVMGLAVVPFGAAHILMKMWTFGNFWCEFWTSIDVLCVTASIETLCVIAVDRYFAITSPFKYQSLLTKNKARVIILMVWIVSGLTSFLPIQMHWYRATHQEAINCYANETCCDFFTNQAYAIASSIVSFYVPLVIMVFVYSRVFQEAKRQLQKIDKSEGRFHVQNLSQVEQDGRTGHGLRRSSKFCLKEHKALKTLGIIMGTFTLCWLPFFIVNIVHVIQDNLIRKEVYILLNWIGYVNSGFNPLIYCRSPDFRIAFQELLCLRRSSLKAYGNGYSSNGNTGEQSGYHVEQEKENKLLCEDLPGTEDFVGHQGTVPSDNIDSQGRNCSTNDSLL
Glucose-6-phosphate 1-dehydrogenase, sequence (P11413 whole entry): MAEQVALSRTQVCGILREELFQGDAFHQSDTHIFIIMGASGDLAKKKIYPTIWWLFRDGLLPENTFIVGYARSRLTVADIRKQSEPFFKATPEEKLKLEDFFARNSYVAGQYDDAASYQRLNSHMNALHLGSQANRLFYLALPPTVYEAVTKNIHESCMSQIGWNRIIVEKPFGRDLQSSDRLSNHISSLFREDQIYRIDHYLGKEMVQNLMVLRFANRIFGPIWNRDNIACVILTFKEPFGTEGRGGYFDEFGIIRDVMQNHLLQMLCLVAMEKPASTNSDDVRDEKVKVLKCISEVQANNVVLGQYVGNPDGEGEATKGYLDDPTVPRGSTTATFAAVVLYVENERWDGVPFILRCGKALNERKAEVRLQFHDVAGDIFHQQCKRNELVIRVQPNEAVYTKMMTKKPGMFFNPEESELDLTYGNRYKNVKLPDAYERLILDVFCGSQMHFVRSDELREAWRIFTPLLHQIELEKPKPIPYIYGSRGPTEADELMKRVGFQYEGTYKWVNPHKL
Trypsin, sequence (P00761 whole entry): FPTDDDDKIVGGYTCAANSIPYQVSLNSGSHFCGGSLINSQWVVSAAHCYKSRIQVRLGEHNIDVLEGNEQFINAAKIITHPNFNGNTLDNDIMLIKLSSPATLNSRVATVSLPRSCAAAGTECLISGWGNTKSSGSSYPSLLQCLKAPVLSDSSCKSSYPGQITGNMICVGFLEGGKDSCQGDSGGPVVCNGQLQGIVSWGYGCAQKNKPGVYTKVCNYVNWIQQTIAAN

SMILES: CCCNC(=O)c1ccccc1NC(=O)c1ccccc1N(C)S(=O)(=O)c1ccc(C)cc1
- EC50 [1]: > 59.6 µM (inactive)
- EC50 [2]: > 59.6 µM (inactive)

SMILES: COc1ccc(CSc2ccc(-c3nc4ccccn4c3NCc3ccccc3)cc2OC)cc1
- EC50 [3]: 1.32 µM (active)
- AC50 [4]: 4.45 µM (active)

SMILES: Cc1ccc(/C=N/NC(=O)c2cccc(S(=O)(=O)Nc3cccc(Cl)c3)c2)o1
- IC50 [5]: 82.1 µM (active)

SMILES: Cc1ccc2cc(CN(C(=O)c3cccs3)c3ccccc3)c(O)nc2c1
- IC50 [6]: > 50 µM (inactive)

SMILES: CCCCn1c(N)c(C(=O)OCCOC)c2nc3ccccc3nc21
- IC50 [5]: 38 µM (active)

SMILES: Cc1ccc(N(CC(O)CN2C(=O)NC(C)(C)C2=O)S(=O)(=O)c2ccc(C)cc2)cc1 (stereo not drawn)
- IC50 [6]: > 50 µM (inactive)

SMILES: CCOC(=O)c1cccc(Nc2nc(-c3cccnc3)nc3ccccc23)c1
- IC50 [7]: 24 µM (active)
- CC50 [8]: 14 µM (active)
- IC50 [9]: 14.5 µM (active)
- IC50 [10]: > 20 µM (inactive)
- IC50 [11]: 15.2 µM (active)

SMILES: CC(=O)OCC1(C)CN(c2ccccc2)NC1=O (stereo not drawn)
- IC50 [12]: 46.7 µM (inactive)

SMILES: CC1CCN(S(=O)(=O)c2ccc3c(c2)C(=NO)c2cc(S(=O)(=O)N4CCC(C)CC4)ccc2-3)CC1
- AC50 [13]: 0.584 µM (active)
- EC50 [1]: > 59.6 µM (inactive)
- EC50 [14]: 0.303 µM (active)
- EC50 [15]: 0.265 µM (active)
- EC50 [2]: > 59.6 µM (inactive)

SMILES: COc1ccnc2c1c(=O)n(Cc1ccc(Cl)cc1)c(=O)n2C
- IC50 [9]: 11.7 µM (active)
- IC50 [10]: 4.03 µM (active)
- IC50 [11]: 8.22 µM (active)

SMILES: COC(=O)Cc1c(C)nc2nc(-c3ccc(C)cc3)nn2c1O
- IC50 [6]: > 50 µM (inactive)

SMILES: C#CCOCCOCCOCCNc1nc(N2CCOCC2)nc(N2CCN(C(=O)[C@H](CCCCN)n3cc(CN)nn3)CC2)n1
- IC50 [9]: 15.3 µM (active)
- IC50 [10]: > 20 µM (inactive)
- IC50 [11]: > 20 µM (inactive)

SMILES: CS(=O)(=O)c1ccc(C(=O)OCc2nnc(-c3ccccc3)o2)cc1[N+](=O)[O-]
- AC50 [16]: 13.4 µM (active)
- AC50 [17]: 7.57 µM (active)
- EC50 [3]: 19 µM (inactive)
- EC50 [1]: > 59.6 µM (inactive)
- AC50 [18]: 12.1 µM (active)
- EC50 [19]: 2.66 µM (active)
- EC50 [20]: 4.95 µM (active)
- AC50 [21]: 20.2 µM (active)
- AC50 [22]: 8.73 µM (active)
- EC50 [2]: > 59.6 µM (inactive)
- EC50 [23]: 6.24 µM (active)
- AC50 [24]: 6.14 µM (active)
- IC50 [25]: 3.01 µM (active)
- EC50 [26]: 8.57 µM (inconclusive)

SMILES: COc1cc(/C=N/NC(=O)CSCc2ccc([N+](=O)[O-])cc2)cc(OC)c1OC
- IC50 [9]: 4.56 µM (active)
- IC50 [10]: > 20 µM (inactive)
- IC50 [11]: 7.06 µM (active)

From ChEMBL document CHEMBL1201862, “PubChem BioAssay data set” (2004)
